Measurements: a compilation of properties of binary mixtures (doi:10.1016/j.molliq.2018.02.064)

Assay: xn = mol fraction of the nth substance listed
Settings: 100 kPa, x2 = 0

CCO + CCCC[n+]1ccn(C)c1.O=S(=O)([N-]S(=O)(=O)C(F)(F)F)C(F)(F)F
Settings | viscosity [mPa·s]
293 K | 1.19
293.3 K | 1.18
293.61 K | 1.18
293.91 K | 1.17
294.21 K | 1.17
294.52 K | 1.16
294.82 K | 1.16
295.12 K | 1.15
295.42 K | 1.15
296.03 K | 1.14
296.33 K | 1.13
296.64 K | 1.13
297.24 K | 1.12
298.45 K | 1.09
298.76 K | 1.09
299.06 K | 1.08
299.36 K | 1.08
299.67 K | 1.07
299.97 K | 1.07
300.27 K | 1.06
300.58 K | 1.06
300.88 K | 1.05
301.18 K | 1.05
301.79 K | 1.04
302.09 K | 1.03
302.39 K | 1.03
303 K | 1.02
303.61 K | 1.01
303.91 K | 1
304.52 K | 0.99
304.82 K | 0.99
305.12 K | 0.98
305.42 K | 0.98
305.73 K | 0.97
306.33 K | 0.96
306.64 K | 0.96
306.94 K | 0.95
307.24 K | 0.95
307.55 K | 0.94
307.85 K | 0.94
308.15 K | 0.93
308.45 K | 0.93
308.76 K | 0.92
309.06 K | 0.92
309.36 K | 0.91
309.97 K | 0.9
310.27 K | 0.9
310.88 K | 0.89
311.18 K | 0.88
311.48 K | 0.88
311.79 K | 0.87
312.09 K | 0.87
312.39 K | 0.86
313.91 K | 0.84
314.21 K | 0.84
314.52 K | 0.83
314.82 K | 0.83
315.12 K | 0.82
315.42 K | 0.82
315.73 K | 0.81
316.03 K | 0.81
316.64 K | 0.8
316.94 K | 0.8
317.24 K | 0.79
317.55 K | 0.79
317.85 K | 0.78
318.15 K | 0.78
318.76 K | 0.77
319.06 K | 0.77
319.97 K | 0.75
320.27 K | 0.75
320.58 K | 0.74
321.18 K | 0.73
321.79 K | 0.73
322.09 K | 0.72
322.39 K | 0.72
322.7 K | 0.71
323 K | 0.71
